Key:
CSF1R (FMS) = molecular target: T1, CSF1R (FMS) (Homo sapiens, UniProt P07333); test: CSF1R (FMS) kinase activity, Z'-LYTE biochemical assay (Invitrogen); conditions: ATP at or close to Km, 60 minute reaction at room temperature, read-out: Inhibitor activity versus CSF-1
T1 construct: purchased Invitrogen (Paisley, UK)
Method: CSF1R (FMS) Kinase Activity
The ability of compounds to inhibit CSF1R (FMS) kinase activity was measured in an assay performed by Invitrogen (Paisley, UK). The Z′-LYTE™ biochemical assay employs a fluorescence-based, coupled-enzyme format and is based on the differential sensitivity of phosphorylated and non-phosphorylated peptides to proteolytic cleavage. The peptide substrate is labelled with two fluorophores—one at each end—that make up a FRET pair. In the primary reaction, the kinase transfers the gamma-phosphate of ATP to a single […] residue in a synthetic FRET-peptide. In the secondary reaction, a site-specific protease recognizes and cleaves non-phosphorylated FRET-peptides. Phosphorylation of FRET-peptides suppresses cleavage by the Development Reagent. Cleavage disrupts FRET between the donor (i.e. coumarin) and acceptor (i.e. fluorescein) fluorophores on the FRET-peptide, whereas uncleaved, phosphorylated FRET-peptides maintain FRET. A […] method, which calculates the ratio (the Emission Ratio) of donor emission to acceptor emission after excitation of the donor fluorophore at 400 nm, is used to quantitate reaction progress.
The final 10 μL Kinase Reaction consists of 0.12-12.3 ng CSF1R (FMS), 2 μM Tyr 01 Peptide and ATP in 50 mM HEPES pH 7.5, 0.01% BRIJ-35, 10 mM MgCl2, 1 mM EGTA. The assay is performed at an ATP concentration at, or close to, the Km. After the 60 minute Kinase Reaction incubation at room temperature, 5 μL of a 1:256 dilution of Development Reagent is added. The assay plate is incubated for a further 60 minutes at room temperature and read on a fluorescence plate reader.
Duplicate data points are generated from a ⅓ log dilution series of a stock solution of test compound in DMSO. Nine dilutions steps are made from a top concentration of 10 mM, and a ‘no compound’ blank is included. Data is collected and analysed using XLfit software from IDBS. The dose response curve is curve fitted to model number 205 (sigmoidal dose-response model). From the curve generated, the concentration giving 50% inhibition is determined and reported.

MCP-1 = test: MCSF-stimulation of human whole blood, MCP-1 levels by sandwich ELISA; assay type: cell-based; conditions: inhibitor 2 hours before MCSF 50 ng/ml, 22 hrs, MCP-1 in cell-free supernatants, read-out: Inhibitor activity versus MCP-1
Method: Macrophage Colony-Stimulating Factor (MCSF)-Stimulation of Human Whole Blood
Whole blood was taken by venous puncture using heparinised vacutainers (Becton Dickinson) and diluted in an equal volume of RPMI1640 tissue culture media (Sigma). 100 μl was plated in V-bottomed 96 well tissue culture treated plates. 2 hours after the addition of the inhibitor in 100 μl of RPMI1640 media, the blood was stimulated with MCSF (Peprotech: #300-25-10 uG) at a final concentration of 50 ng/ml and incubated at 37° C. in 5% CO2 for 22 hrs. MCP-1 levels were measured from cell-free supernatants by sandwich ELISA developed from MCP-1/CCL2 Duoset (R&D Systems #DY279). Additional reagents required for ELISA were purchased from Sigma, (BSA: A3059, 10×PBS: D1408, Tween20: P5927) R&D Systems, (colour reagent: #DY999 and stop solution: #DY994) and Costar (96-well EIA plates: #2592). Assays were carried out following the manufacturer's instructions with the following modifications: Cell-free supernatants were diluted 30:70 in reagent diluent before assay. All incubations except capture antibody were carried out with shaking at 550 rpm. 3 washes were carried out between steps, and incubation times were blocking 1.5 hr, sample/standard and detection antibody incubations 2 hr, HRP incubation 30 min, colour development 20 min. • IC50 values were allocated to one of five ranges as follows: • Range A: IC50<100 nM • Range B: 100 nM<IC50<300 nM • Range C: 300 nM<1050<1000 nM • Range D: 1000 nM<IC50<5000 nM • Range E: IC50>5000 nM • NT=not tested

T1 sequence (P07333 20-972): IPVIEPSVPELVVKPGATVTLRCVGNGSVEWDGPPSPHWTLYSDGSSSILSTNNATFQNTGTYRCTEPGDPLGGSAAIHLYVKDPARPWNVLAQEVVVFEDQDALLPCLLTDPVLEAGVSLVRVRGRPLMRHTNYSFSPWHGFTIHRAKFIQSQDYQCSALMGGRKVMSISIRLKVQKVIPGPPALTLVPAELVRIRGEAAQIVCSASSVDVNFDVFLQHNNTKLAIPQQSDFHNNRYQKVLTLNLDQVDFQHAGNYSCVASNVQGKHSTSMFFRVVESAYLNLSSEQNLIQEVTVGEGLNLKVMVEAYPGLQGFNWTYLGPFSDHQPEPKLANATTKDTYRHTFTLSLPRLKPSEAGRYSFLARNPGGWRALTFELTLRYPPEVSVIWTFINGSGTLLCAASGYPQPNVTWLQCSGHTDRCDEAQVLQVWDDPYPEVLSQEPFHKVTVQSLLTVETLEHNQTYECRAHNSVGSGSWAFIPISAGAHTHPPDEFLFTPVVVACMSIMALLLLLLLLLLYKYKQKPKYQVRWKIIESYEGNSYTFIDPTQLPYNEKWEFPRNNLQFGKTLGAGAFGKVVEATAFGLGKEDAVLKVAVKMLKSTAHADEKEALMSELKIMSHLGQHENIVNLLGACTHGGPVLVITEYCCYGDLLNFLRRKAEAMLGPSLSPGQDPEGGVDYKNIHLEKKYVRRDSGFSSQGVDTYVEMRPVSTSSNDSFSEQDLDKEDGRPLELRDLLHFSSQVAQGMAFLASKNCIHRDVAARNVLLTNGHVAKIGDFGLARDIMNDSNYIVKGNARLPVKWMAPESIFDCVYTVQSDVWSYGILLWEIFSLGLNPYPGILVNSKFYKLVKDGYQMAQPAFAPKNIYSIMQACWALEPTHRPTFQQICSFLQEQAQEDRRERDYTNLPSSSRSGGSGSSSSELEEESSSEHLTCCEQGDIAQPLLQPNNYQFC

| IC50 (CSF1R (FMS)) [µM] | IC50 (MCP-1) [µM] | SMILES |
| --- | --- | --- |
| > 5 | 1 to 5 | CC(C)(NCc1cccc(-c2cnc(N)c(NCc3c(Cl)cccc3Cl)n2)c1)C(=O)OC1CCCC1 [Example 40, Cyclopentyl N-(3-{5-amino-6-[(2,6-dichlorobenzyl)amino]pyrazin-2-yl}benzyl)-2-methylalaninate] |
| > 5 | 0.3 to 1 | Nc1ncc(-c2cccc(CNC3(C(=O)OC4CCCC4)CCC3)c2)nc1NCc1c(Cl)cccc1Cl [Example 42, Cyclopentyl 1-[(3-{5-amino-6-[(2,6-dichlorobenzyl)amino]pyrazin-2-yl}benzyl)amino]cyclobutanecarboxylate di-formate] |
| > 5 | > 5 | CC(C)(C)OC[C@H](NCc1cccc(-c2cnc(N)c(NCc3c(Cl)cccc3Cl)n2)c1)C(=O)OC1CCCC1 [Example 43, Cyclopentyl N-(3-{5-amino-6-[(2,6-dichlorobenzyl)amino]pyrazin-2-yl}benzyl)-O-tert-butyl-L-serinate] |
| > 5 | > 5 | CC(C)(C)OC[C@H](NCc1cccc(-c2cnc(N)c(NCc3c(Cl)cccc3Cl)n2)c1)C(=O)OC(C)(C)C [Example 44, tert-Butyl N-(3-{5-amino-6-[(2,6-dichlorobenzyl)amino]pyrazin-2-yl}benzyl)-O-tert-butyl-L-serinate] |
| 1 to 5 | 1 to 5 | C[C@H](NCc1cccc(-c2cnc(N)c(NCc3c(Cl)cccc3Cl)n2)c1)C(=O)OC(C)(C)C [Example 45, tert-Butyl N-(3-{5-amino-6-[(2,6-dichlorobenzyl)amino]pyrazin-2-yl}benzyl)-L-alaninate] |
| < 0.1 | 0.3 to 1 | CC(C)(C)OC(=O)[C@H]1CC(NCc2cccc(-c3cnc(N)c(NCc4c(Cl)cccc4Cl)n3)c2)CCN1 (stereo partly drawn) [Example 46, tert-Butyl (2R)-4-[(3-{5-amino-6-[(2,6-dichlorobenzyl)amino]pyrazin-2-yl}benzyl)amino]piperidine-2-carboxylate] |
| < 0.1 | 0.3 to 1 | CC(C)(C)OC(=O)[C@@H]1CC(NCc2cccc(-c3cnc(N)c(NCc4c(Cl)cccc4Cl)n3)c2)CCN1 (stereo partly drawn) [Example 47, tert-Butyl (2S)-4-[(3-{5-amino-6-[(2,6-dichlorobenzyl)amino]pyrazin-2-yl}benzyl)amino]piperidine-2-carboxylate di-formate] |
| 1 to 5 | 0.3 to 1 | CC(C)(NCCc1cccc(-c2cnc(N)c(NCc3c(Cl)cccc3Cl)n2)c1)C(=O)OC1CCCC1 [Example 48, Cyclopentyl N-[2-(3-{5-amino-6-[(2,6-dichlorobenzyl)amino]pyrazin-2-yl}phenyl)ethyl]-2-methylalaninate] |
| 1 to 5 | 1 to 5 | Nc1ncc(-c2cccc(CCNC3(C(=O)OC4CCCC4)CCC3)c2)nc1NCc1c(Cl)cccc1Cl [Example 49, Cyclopentyl 1-{[2-(3-{5-amino-6-[(2,6-dichlorobenzyl)amino]pyrazin-2-yl}phenyl)ethyl]amino}cyclobutanecarboxylate] |
| < 0.1 | 0.1 to 0.3 | Nc1ncc(-c2cccc(CCNC3CCN[C@@H](C(=O)OC4CCCC4)C3)c2)nc1NCc1c(Cl)cccc1Cl (stereo partly drawn) [Example 50, Cyclopentyl (2R)-4-{[2-(3-{5-amino-6-[(2,6-dichlorobenzyl)amino]pyrazin-2-yl}phenyl)ethyl]amino}piperidine-2-carboxylate] |
| < 0.1 | 0.1 to 0.3 | Nc1ncc(-c2cccc(CCNC3CCN[C@H](C(=O)OC4CCCC4)C3)c2)nc1NCc1c(Cl)cccc1Cl (stereo partly drawn) [Example 51, Cyclopentyl (2S)-4-{[2-(3-{5-amino-6-[(2,6-dichlorobenzyl)amino]pyrazin-2-yl}phenyl)ethyl]amino}piperidine-2-carboxylate] |
| 0.1 to 0.3 | 0.1 to 0.3 | Nc1ncc(-c2cnn(CCNC3CCN[C@@H](C(=O)OC4CCCC4)C3)c2)nc1NCc1c(Cl)cccc1Cl (stereo partly drawn) [Example 55, Cyclopentyl (2R)-4-{[2-(4-{5-amino-6-[(2,6-dichlorobenzyl)amino]pyrazin-2-yl}-1H-pyrazol-1-yl)ethyl]amino}piperidine-2-carboxylate di-formate] |
| 0.1 to 0.3 | 0.3 to 1 | Nc1ncc(-c2cnn(CCNC3CCN[C@H](C(=O)OC4CCCC4)C3)c2)nc1NCc1c(Cl)cccc1Cl (stereo partly drawn) [Example 56, Cyclopentyl (2S)-4-{[2-(4-{5-amino-6-[(2,6-dichlorobenzyl)amino]pyrazin-2-yl}-1H-pyrazol-1-yl)ethyl]amino}piperidine-2-carboxylate di-formate] |
| 1 to 5 | 1 to 5 | CC(C)C[C@H](NCCn1cc(-c2cnc(N)c(NCc3c(Cl)cccc3Cl)n2)cn1)C(=O)OC1CCCC1 [Example 57, Cyclopentyl N-[2-(4-{5-amino-6-[(2,6-dichlorobenzyl)amino]pyrazin-2-yl}-1H-pyrazol-1-yl)ethyl]-L-leucinate] |
| > 5 | > 5 | CC(C)C[C@H](NCCn1cc(-c2cnc(N)c(NCc3c(Cl)cccc3Cl)n2)cn1)C(=O)OC(C)(C)C [Example 58, tert-Butyl N-[2-(4-{5-amino-6-[(2,6-dichlorobenzyl)amino]pyrazin-2-yl}-1H-pyrazol-1-yl)ethyl]-L-leucinate] |

Reference: patent US9604940B2 (Chroma Therapeutics Ltd., priority 2012, dated 2017)
